According to US11129840B2, “Methods for identifying novel dosing regimens” (Zavante Therapeutics, Inc., priority 2017, dated 2021):
≈ marks a conversion by molar mass, not a printed value.

How the values were obtained:
[1] = tested on: EC, KPN and PSA isolates; test: Thigh infection, dose fractionation and efficacy against all 10 isolates; type: in vivo, mice; details: 24 h; commonly in isolates with lower MICs
Description: (§1) 5 EC (4 ESBL), 3 KPN (2 CR), and 2 PSA were used. MICs were determined by agar dilution. […] PK/PD index determination was performed using a dose fractionation (DF) study design. […] The dose-response data was analyzed using the Emax Hill equation.

[2] = tested on: Carbapenemase-producing Enterobacteriaceae (CPE); test: FOF MIC by ETEST; type: cell-based; details: 37 CPE incl. 11 harboring fos(A)
Description: Isolates (n=37) harboring KPC, NDM, OXA, or VIM carbapenemases, with a majority also producing extended-spectrum β-lactamases, were acquired from the FDA-CDC Antimicrobial Resistant Bank. MICs for agents tested in combination with FOF were determined by broth microdilution; FOF MIC was determined by ETEST® antibiotic gradient diffusion strip prior to conducting synergy assessments between FOF and aztreonam (ATM), ceftazidime (CAZ), ceftazidime/avibactam (CZA), cefepime, ceftolozane/tazobactam (C/T), meropenem, piperacillin/tazobactam, and tobramycin (TOB). Synergistic potential for each combination was determined by crossing a FOF ETEST® strip with each of the aforementioned antibiotic strips at a 90° angle at their respective MICs with subsequent calculation of the fractional inhibitory concentration (FIC). […] Only organisms that were non-susceptible to the second drug were assessed for synergy.

[3] = tested on: 5 EC (4 ESBL), 3 KPN (2 CR), and 2 PSA; test: MIC by agar dilution, isolates of the thigh infection study; type: cell-based; details: 10 isolates
Description: as §1

[4] = Single dose plasma PK in mice after SC administration; details: mouse, in vivo
[5] = tested on: Enterobacteriaceae; test: Neutropenic murine-thigh infection model, AUC:MIC ratio targets; type: in vivo
[6] = tested on: Carbapenem-resistant Enterobacteriaceae (CRE) clinical isolates; test: Agar dilution susceptibility, CRE clinical isolates; type: cell-based
[7] = tested on: CAZ-NS PSA; test: Reference agar dilution MIC, resistant SENTRY isolates; type: cell-based, Pseudomonas aeruginosa
Description: (§2) Utilizing existing interpretative criteria for the marketed oral agent (dosed at 3 g) for analysis purposes, FOS susceptibility (S) was determined for recent resistant GN and GP clinical isolates including vancomycin-resistant Enterococcus faecium (VREM) and E. faecalis (VREF); methicillin-resistant Staphylococcus aureus (MRSA) and MR coagulase negative staphylococci (MR-CoNS), Escherichia coli (EC) and Klebsiella pneumoniae (KPN) containing extended spectrum beta-lactamases (ESBL) or were carbapenem resistant (CR); and), Pseudomonas aeruginosa (PSA) non-susceptible to ceftazidime (CAZ-NS) or to meropenem (MER-NS). […] Isolates were collected from hospitalized patients in the US as a part of the SENTRY surveillance program, 2013-2015.

[8] = tested on: MER-NS PSA; test: as above; type: cell-based, Pseudomonas aeruginosa
Description: as §2

[9] = tested on: Clostridium spp., Finegoldia magna, and Peptostreptococcus spp.; test: Reference agar dilution MIC, anaerobes; type: cell-based; details: small collection
Description: (§3) FOS was tested against over 1,400 GN and 800 GP clinical isolates collected in US medical centers as part of the SENTRY Antimicrobial Surveillance Program (96% of isolates from 2015) and a selection of 29 GN and 20 GP anaerobes. Isolates were susceptibility (S) tested against FOS and comparators by reference agar dilution (25 μg/mL glucose-6-phosphate supplementation) using existing FDA breakpoints of the oral formulation for comparative assessments.

[10] = tested on: Prevotella and Porphyromonas spp.; test: Reference agar dilution MIC, anaerobes; type: cell-based
Description: as §3

[11] = tested on: Veillonella spp.; test: Reference agar dilution MIC, anaerobes; type: cell-based
Description: as §3

[12] = tested on: Propionibacterium spp.; test: Reference agar dilution MIC, anaerobes; type: cell-based
Description: as §3

[13] = tested on: Carbapenem-resistant Enterobacteriaceae (CRE) clinical isolates; test: Susceptibility testing, CRE clinical isolates; type: cell-based
[14] = tested on: EC that were CR; test: Reference agar dilution MIC, resistant SENTRY isolates; type: cell-based, Escherichia coli
Description: as §2

[15] = Phase I single dose pharmacokinetics in healthy adult subjects; type: in vivo, human; details: for half-life / CL renal / Vd / AUC(0-inf) / Cmax / Tmax: plasma
Description: Materials/methods: Phase I, open-label study evaluating IV (ZTI-01) and PO (Monurol®) FOS in healthy adult subjects. […] Blood and urine samples were collected serially before and through 48 hours post-dose and analyzed via LC/MS-MS. Noncompartmental analyses were performed via WinNonlin. Safety was monitored throughout the course of the study.

[16] = tested on: ESBL-producing K. pneumoniae isolate; test: Time-kill kinetic analysis; type: cell-based, Klebsiella pneumoniae; details: FOS 1, 2, 4×MIC, 4 h
Description: Broth microdilution for FOS (Mueller-Hinton broth supplemented with 25 μg/mL glucose-6-phosphate) and comparators was performed before performing TKK. TKK employed MIC multiples for FOS, and ¼ and 1×MIC of select comparators, and combinations of FOS and comparator. TKK were sampled for colony counts at T0, T2, T4, T8 and T24 hours (h). Two Klebsiella pneumoniae isolates (one KPC and one ESBL), two Pseudomonas aeruginosa isolates (non-MDR), and one Acinetobacter baumannii isolate (MDR) were tested.

[17] = human, in vivo, 3 g PO (Monurol), mean ± SD
[18] = human, 1 g IV (ZTI-01), mean ± SD
[19] = human, 3 g PO (Monurol), mean ± SD
[20] = human, 8 g IV (ZTI-01), mean ± SD

C[C@@H]1O[C@@H]1P(=O)(O)O [FOS, fosfomycin]
Maximal cidal activity [1]: 2-3 log kill | MIC50 [2]: > 1020 µg/mL | MIC range [3]: 1 to 16 µg/mL | half-life [4]: 0.51 to 1.1 h | median total-drug plasma AUC:MIC ratio target ([5]; 1-log10 CFU reduction from baseline at 24 h): 41.6 | median total-drug plasma AUC:MIC ratio target ([5]; net bacterial stasis at 24 h): 19.1 | % of isolates susceptible to FOS [6]: 94% | MIC90 [6]: 512 µg/mL (≈ 3710 µM) | MIC50 ([6]; 50 isolates): 2 µg/mL (≈ 14.5 µM) | MIC range ([6]; C-A R isolates): 1 to 64 µg/mL | MIC ([6]; C-A R isolates, read-out: Median MIC): 8 µg/mL (≈ 57.9 µM) | MIC ([6]; FOS R isolate with fosA2 and SNP in glpT, read-out: MIC): 256 µg/mL (≈ 1850 µM) | MIC ([6]; FOS-R isolate harboring fosA3, read-out: MIC): > 1020 µg/mL | MIC ([6]; third FOS-R isolate (OXA-181+, CTXM-15+Kp), read-out: MIC): 128 µg/mL (≈ 927 µM) | MIC ([7]; Pseudomonas aeruginosa): > 256 µg/mL | MIC90 ([7]; Pseudomonas aeruginosa): 128 µg/mL (≈ 927 µM) | MIC50 ([7]; Pseudomonas aeruginosa, 38 CAZ-NS PSA): 64 µg/mL (≈ 464 µM) | No. of isolates with FOS MIC≤64 μg/mL ([7]; of 38 CAZ-NS PSA): 32 | MIC ([8]; Pseudomonas aeruginosa): > 256 µg/mL | MIC90 ([8]; Pseudomonas aeruginosa): 128 µg/mL (≈ 927 µM) | MIC50 ([8]; Pseudomonas aeruginosa, 42 MER-NS PSA): 64 µg/mL (≈ 464 µM) | No. of isolates with FOS MIC≤64 μg/mL ([8]; of 42 MER-NS PSA): 34 | MIC range [9]: 0.5 to 32 µg/mL | MIC [10]: > 256 µg/mL | MIC range [11]: ≤0.03 to 0.06 µg/mL | MIC [12]: > 256 µg/mL | MIC ([13]; FOS R isolate with fosA2 and SNP in glpT): 256 µg/mL (≈ 1850 µM) | MIC ([13]; FOS-R isolate harboring fosA3): > 1020 µg/mL | No. of isolates with FOS MIC>64 μg/mL ([13]; of 50 isolates): 3 | MIC ([13]; third FOS-R isolate (OXA-181+, CTXM-15+Kp)): 128 µg/mL (≈ 927 µM) | MIC range ([14]; 9 of 11 isolates): 0.5 to 32 µg/mL | MIC ([14]; Escherichia coli): > 256 µg/mL | fraction of the dose excreted in urine after 48 hours ([15]; 1 g IV): 74% | CLT ([15]; 1 g IV (ZTI-01), mean ± SD): 8.7 ± 1.7 L/h | fraction of the dose excreted in urine after 48 hours ([15]; 3 g PO): 37% | CLT/F ([15]; 3 g PO (Monurol), mean ± SD): 17.0 ± 4.7 L/h | fraction of the dose excreted in urine after 48 hours ([15]; 8 g IV): 80% | CLT ([15]; 8 g IV (ZTI-01), mean ± SD): 7.8 ± 1.4 L/h | dose dependence of plasma PK ([15]; between the 1 g and 8 g IV doses): approximately linear and proportional | half-life ([15]; human, in vivo, 1 g IV (ZTI-01), mean ± SD): 2.4 ± 0.4 h | Vd/F [15, 17]: 204 ± 70.7 L | half-life [15, 17]: 9.04 ± 4.5 h | half-life ([15]; human, in vivo, 8 g IV (ZTI-01), mean ± SD): 2.8 ± 0.6 h | CL renal [15, 18]: 110 mL/min | Vd [15, 18]: 29.7 ± 5.7 L | CL renal [15, 19]: 108 mL/min | CL renal [15, 20]: 105 mL/min | Vd [15, 20]: 31.5 ± 10.4 L | AUC(0-inf) [15, 18]: 120 ± 28.5 µg·h/mL | Cmax [15, 18]: 44300 ± 7600 ng/mL | Tmax [15, 18]: 1.1 ± 0.05 h | AUC(0-inf) [15, 19]: 191 ± 57.6 µg·h/mL | Cmax [15, 19]: 26800 ± 6400 ng/mL | Tmax [15, 19]: 2.25 ± 0.4 h | AUC(0-inf) [15, 20]: 1060 ± 192 µg·h/mL | Cmax [15, 20]: 370000 ± 61900 ng/mL | Tmax [15, 20]: 1.08 ± 0.01 h | decrease in CFU [16]: 1.4-2.2 log10 CFU
